{
  "source": "patent US4623626A",
  "about": "(priority 1982, dated 1986)",
  "key": {"[1]": {"biological_target": "T1, L-glutamic acid oxidase (enzyme of the present invention) (Streptomyces sp, UniProt Q8L3C7)", "T1 construct": "isolated and purified the enzyme of the present invention as a single enzyme protein from such a cultured product of the microorganism; made in house; host or cells: natural producer, Streptomyces sp; (strain X-119-6 per the earlier reading); enzyme purified from the cultured product, not recombinant", "T1 sequence (Q8L3C7 15-390 limits assumed)": "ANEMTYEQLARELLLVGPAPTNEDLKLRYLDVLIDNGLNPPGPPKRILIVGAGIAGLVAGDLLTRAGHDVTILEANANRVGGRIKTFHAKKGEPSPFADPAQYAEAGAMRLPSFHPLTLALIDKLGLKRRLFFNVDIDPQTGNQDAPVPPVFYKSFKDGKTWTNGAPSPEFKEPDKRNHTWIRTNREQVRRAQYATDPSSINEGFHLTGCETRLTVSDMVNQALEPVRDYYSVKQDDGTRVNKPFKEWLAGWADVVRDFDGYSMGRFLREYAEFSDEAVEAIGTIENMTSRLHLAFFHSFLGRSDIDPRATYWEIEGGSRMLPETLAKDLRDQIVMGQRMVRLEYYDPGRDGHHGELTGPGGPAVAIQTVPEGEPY", "T1 sequence (Q8L3C7 391-520 limits assumed)": "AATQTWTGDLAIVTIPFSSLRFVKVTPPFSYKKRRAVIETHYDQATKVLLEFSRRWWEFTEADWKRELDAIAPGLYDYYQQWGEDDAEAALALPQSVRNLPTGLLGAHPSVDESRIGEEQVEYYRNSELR", "T1 sequence (Q8L3C7 521-701 limits assumed)": "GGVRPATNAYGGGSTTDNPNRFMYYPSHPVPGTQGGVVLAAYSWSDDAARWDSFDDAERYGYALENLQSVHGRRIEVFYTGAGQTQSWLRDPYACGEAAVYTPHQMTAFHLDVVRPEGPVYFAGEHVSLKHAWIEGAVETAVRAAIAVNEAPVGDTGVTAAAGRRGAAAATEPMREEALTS", "assay": "Effects of additives on the enzyme activity (inhibition, activation)", "type": "biochemical, Streptomyces sp. X-119-6", "settings": "additive 1 mM", "description": "For examination of the effects of various additives on the enzyme activity of the present invention, enzymatic reaction was carried out in a reaction mixture (pH 7.4) containing each of the substances shown in Table 2 at a concentration of 1 mM."}, "[2]": {"tested_on": "glutamic acid oxidase (known enzyme)", "settings": "cited from earlier work"}, "[3]": {"biological_target": "T1, L-glutamic acid oxidase (enzyme of the present invention)", "assay": "Substrate specificity of the enzyme of the present invention, oxygen electrode method", "type": "biochemical, Streptomyces sp. X-119-6", "description": "The concentration of each substrate was 10 mM, and the reactions were carried out at pH 7.4 (0.1 M potassium phosphate buffer) and pH 6.0 (0.1 M acetate buffer)."}, "[4]": {"biological_target": "T1, L-glutamic acid oxidase (enzyme of the present invention)", "assay": "km values of the enzyme of the present invention", "type": "biochemical, Streptomyces sp. X-119-6", "settings": "pH 7.4", "description": "That is, 1 ml of 0.1 M potassium phosphate buffer (pH 7.4) containing 10 mM sodium L-glutamate was charged into an oxygen electrode cell and 10 μl of an enzyme solution was added thereto to measure the oxygen consumption rate. One unit of enzyme was determined as the amount of enzyme which consumes 1μ mol of oxygen per minute at 30° C. in the absence of catalase (unit: hereinafter abbreviated as \"U\")."}, "[5]": {"settings": "pH of 6.0 or less or pH 10.0 or more"}, "[6]": {"tested_on": "glutamic acid oxidase (known enzyme)", "settings": "cited from earlier work; for activity of the known enzyme for the substrate: relative to L-glutamic acid; for relative activity of the known enzyme: velocity for L-glutamic acid given as 100"}},
  "note": "“Also recorded” adds a separate entry of the source. Read-outs that look alike come from different tables or passages of the source.",
  "data": [
    {"smiles": "[Ca+2].[Cl-].[Cl-]", "note": "[CaCl2]", "values": [
      {"measurement": "Relative activity", "setting": "[1]; reaction mixture pH 7.4, no addition = 100", "value": 100.0}
    ]},
    {"smiles": "[Cl][Cu][Cl]", "note": "[CuCl2, cupric chloride]", "values": [
      {"measurement": "inhibition of the activity of the enzyme of the present invention", "setting": "[1]; pH 7.4", "value": "not inhibited at all"},
      {"measurement": "inhibition of the known enzyme", "setting": "[2]", "value": "completely inhibited"}
    ]},
    {"smiles": "N[C@H](CCC(=O)O)C(=O)O", "note": "[D-Glutamic acid]", "values": [
      {"measurement": "activity of the enzyme of the present invention for the substrate", "setting": "[3]", "value": "substantially no activity"}
    ]},
    {"smiles": "N[C@@H](CC(=O)O)C(=O)O", "note": "[L-Aspartic acid]", "values": [
      {"measurement": "activity of the enzyme of the present invention for the substrate", "setting": "[3]; pH 6.0", "value": "substantially no activity"},
      {"measurement": "Km", "setting": "[4]", "value": 29, "unit": "mM"},
      {"measurement": "action of the enzyme of the present invention on the substrate", "setting": "[5]", "value": "substantially no action"},
      {"measurement": "activity of the known enzyme for the substrate", "setting": "[6]", "value": "≤ 0.1", "unit": "%"}
    ]},
    {"smiles": "NC(=O)CC[C@H](N)C(=O)O", "note": "[L-Glutamine]", "values": [
      {"measurement": "activity of the enzyme of the present invention for the substrate", "setting": "[3]", "value": "substantially no activity"},
      {"measurement": "activity of the known enzyme for the substrate", "setting": "[6]", "value": 8.4, "unit": "%"},
      {"measurement": "relative activity of the known enzyme", "setting": "[6]", "value": 8.4}
    ]},
    {"smiles": "N[C@@H](Cc1c[nH]cn1)C(=O)O", "note": "[L-Histidine]", "values": [
      {"measurement": "activity of the enzyme of the present invention for the substrate", "setting": "[3]", "value": "substantially no activity"},
      {"measurement": "activity of the known enzyme for the substrate", "setting": "[6]", "value": 6.8, "unit": "%"},
      {"measurement": "relative activity of the known enzyme", "setting": "[6]", "value": 6.8}
    ]},
    {"smiles": "[Cu+2]", "note": "[copper ions]", "values": [
      {"measurement": "inhibition of the known enzyme", "setting": "[2]", "value": "Substantially completely inhibited; also recorded: markedly inhibited"}
    ]}
  ]
}
